Results reported in ChEMBL document CHEMBL1201862, “PubChem BioAssay data set” (2004).
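A five-concentration, 48-hour dose response in 96-well plates underlies each endpoint, interpolated linearly between surrounding concentrations. Abbreviation: GI50, concentration required for 50% inhibition of growth.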 The source made the active and inactive calls. No stated cut-off is given here; in the data, active = GI50 up to about 1.1 µM and inactive = higher.

Assays:
Experiment in all cases: NCI tumour cell line growth inhibition, 48 h
CAKI-1 = test system: CAKI-1
OVCAR-3 = test system: OVCAR-3
DLD-1 = test system: DLD-1
SK-MEL-28 = test system: SK-MEL-28
NCI-H522 = test system: NCI-H522
SK-OV-3 = test system: SK-OV-3
U-251 = test system: U-251
BT-549 = test system: BT-549
Malme-3M = test system: Malme-3M
SF-539 = test system: SF-539
A498 = test system: A498
ACHN = test system: ACHN
OVCAR-4 = test system: OVCAR-4
NCI-H226 = test system: NCI-H226
HOP-92 = test system: HOP-92
SNB-75 = test system: SNB-75
HT-29 = test system: HT-29
DMS-273 = test system: DMS-273
SK-MEL-5 = test system: SK-MEL-5
OVCAR-8 = test system: OVCAR-8

Structure (SMILES)	GI50 (CAKI-1)	GI50 (OVCAR-3)	GI50 (DLD-1)	GI50 (SK-MEL-28)	GI50 (NCI-H522)	GI50 (SK-OV-3)	GI50 (U-251)	GI50 (BT-549)	GI50 (Malme-3M)	GI50 (SF-539)	GI50 (A498)	GI50 (ACHN)	GI50 (OVCAR-4)	GI50 (NCI-H226)	GI50 (HOP-92)	GI50 (SNB-75)	GI50 (HT-29)	GI50 (DMS-273)	GI50 (SK-MEL-5)	GI50 (OVCAR-8)
COc1ccc(C(C)c2cc3c(cc2OC)OCO3)cc1 (stereo unspecified)	0.107 µM (active)	0.107 µM (active)	0.225 µM (active)	2.33 µM (inactive)	0.0455 µM (active)	0.2 µM (active)	0.229 µM (active)	51.8 µM (inactive)	0.0951 µM (active)	0.1 µM (active)	0.646 µM (active)	3.01 µM (inactive)	49.4 µM (inactive)	0.416 µM (active)	1.45 µM (inactive)	0.06 µM (active)	0.0798 µM (active)	0.106 µM (active)	0.0659 µM (active)	0.269 µM (active)
COC(=O)c1ccc2c(c1)C(NC(C)=O)CCc1cc(OC)c(OC)c(OC)c1-2 (stereo unspecified)	0.0177 µM (active)	< 0.0116 µM (active)	0.0173 µM (active)	0.0265 µM (active)	0.018 µM (active)	0.0188 µM (active)	< 0.0117 µM (active)	0.104 µM (active)	0.015 µM (active)	0.0124 µM (active)	0.0133 µM (active)	0.018 µM (active)	11.9 µM (inactive)	0.0424 µM (active)	0.0391 µM (active)	0.0129 µM (active)	0.0125 µM (active)	< 0.01 µM (active)	0.013 µM (active)	0.0154 µM (active)
CC(=O)/C=C/c1ccc(C)cc1	> 100 µM (inactive)	> 100 µM (inactive)	> 100 µM (inactive)	> 100 µM (inactive)	> 100 µM (inactive)	> 100 µM (inactive)	> 100 µM (inactive)	–	> 100 µM (inactive)	> 100 µM (inactive)	> 100 µM (inactive)	> 100 µM (inactive)	> 100 µM (inactive)	> 100 µM (inactive)	> 100 µM (inactive)	> 100 µM (inactive)	> 100 µM (inactive)	> 100 µM (inactive)	> 100 µM (inactive)	> 100 µM (inactive)
COC(=O)NC1C(C)OC(OC2C/C=C(/C)C3C=CC4C(OC5CC(OC6CCC(OC7CC(O)C(OC8CCC(O)C(C)O8)C(C)O7)C(C)O6)C(OC(C)=O)C(C)O5)C(C)CC(C)C4C3(C)/C(O)=C3/C(=O)OC4(CC(C=O)=CC(O)C4/C=C\2C)C3=O)CC1(C)[N+](=O)[O-] (stereo unspecified)	2.49 µM (inactive)	0.971 µM (active)	2.45 µM (inactive)	0.403 µM (active)	0.824 µM (active)	2.44 µM (inactive)	0.342 µM (active)	1.04 µM (active)	0.421 µM (active)	0.34 µM (active)	0.668 µM (active)	1.02 µM (active)	1.82 µM (inactive)	1.06 µM (active)	1.06 µM (active)	1.75 µM (inactive)	1.1 µM (active)	1.27 µM (inactive)	0.82 µM (active)	1 µM (active)
CCCCC1CC(c2cccc([N+](=O)[O-])c2)=NO1 (stereo unspecified)	63.5 µM (inactive)	76.2 µM (inactive)	> 100 µM (inactive)	> 100 µM (inactive)	29.5 µM (inactive)	> 100 µM (inactive)	83.2 µM (inactive)	–	> 100 µM (inactive)	> 100 µM (inactive)	49.2 µM (inactive)	> 100 µM (inactive)	> 100 µM (inactive)	> 100 µM (inactive)	> 100 µM (inactive)	> 100 µM (inactive)	28.6 µM (inactive)	> 100 µM (inactive)	43.1 µM (inactive)	70.3 µM (inactive)
CCOC(=O)c1c(C(F)(F)F)oc2c1ccc1nc3nonc3nc12	14 µM (inactive)	16.5 µM (inactive)	14.3 µM (inactive)	14.3 µM (inactive)	15.1 µM (inactive)	20.1 µM (inactive)	15.7 µM (inactive)	–	17 µM (inactive)	16.2 µM (inactive)	16.7 µM (inactive)	15.3 µM (inactive)	9.82 µM (inactive)	19.9 µM (inactive)	13.2 µM (inactive)	13.2 µM (inactive)	15.5 µM (inactive)	19.1 µM (inactive)	13.4 µM (inactive)	16.3 µM (inactive)
CC(=O)OC1CC(n2cc(F)c(=O)[nH]c2=O)OC1CO (stereo unspecified)	0.818 µM (active)	13.5 µM (inactive)	28.8 µM (inactive)	15.6 µM (inactive)	2.15 µM (inactive)	61.1 µM (inactive)	5.69 µM (inactive)	5.5 µM (inactive)	18 µM (inactive)	0.0418 µM (active)	0.0693 µM (active)	0.0585 µM (active)	59.8 µM (inactive)	49.1 µM (inactive)	1.49 µM (inactive)	3.98 µM (inactive)	19.9 µM (inactive)	0.331 µM (active)	1.49 µM (inactive)	0.668 µM (active)
CN(/N=C/c1ccnc2ccccc12)c1ccc([N+](=O)[O-])cc1[N+](=O)[O-]	> 100 µM (inactive)	19.7 µM (inactive)	> 100 µM (inactive)	87.7 µM (inactive)	> 100 µM (inactive)	47.5 µM (inactive)	> 100 µM (inactive)	–	61 µM (inactive)	89.5 µM (inactive)	> 100 µM (inactive)	> 100 µM (inactive)	> 100 µM (inactive)	> 100 µM (inactive)	46.9 µM (inactive)	20.7 µM (inactive)	> 100 µM (inactive)	> 100 µM (inactive)	> 100 µM (inactive)	> 100 µM (inactive)
